From ChEMBL document CHEMBL3638759, “Substituted 2-aza-bicyclo[2.2.1]heptane-3-carboxylic acid (cyano-methyl)-amides inhibitors of cathepsin C” (2014)

Biological target: Dipeptidyl peptidase 1 (Homo sapiens, UniProt P53634)
Assay: Inhibition Assay: The following buffers were used: MES buffer: 25 mM MES, 50 mM NaCl, 5 mM DTT, adjusted to pH 6.0, containing 0.1% BSA; TAGZyme Buffer: 20 mM NaH2PO4, 150 mM NaCl adjusted to pH is 6.0 with HClAssay Conditions:The recombinant human DPPI was diluted in TAGZyme buffer to 1 U/ml (38.1 ug/ml, respectively), and then activated by mixing in a 1:2 ratio with a Cysteamine aqueous solution (2 mM) and incubating for 5 mM at room temperature.Five uL test compound (final concentration 0.1 nM to 100 uM) in aqua bidest (containing 4% DMSO, final DMSO concentration 1%) were mixed with 10 uL of DPPI in MES buffer (final concentration 0.0125 ng/uL) and incubated for 10 min. Then, 5 uL of substrate in MES buffer (final concentration 50 uM) were added. The microtiter plates were then incubated at room temperature for […] Then, the reaction was stopped by adding 10 uL of Gly-Phe-DMK in MES-buffer (final concentration 1 uM).

Sequence of Dipeptidyl peptidase 1 (P53634 25-134 limits assumed): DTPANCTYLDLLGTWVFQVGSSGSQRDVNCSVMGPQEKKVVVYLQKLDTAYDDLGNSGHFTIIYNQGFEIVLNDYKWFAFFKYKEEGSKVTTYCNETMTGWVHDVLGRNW
Sequence of Dipeptidyl peptidase 1 (P53634 231-394 limits assumed): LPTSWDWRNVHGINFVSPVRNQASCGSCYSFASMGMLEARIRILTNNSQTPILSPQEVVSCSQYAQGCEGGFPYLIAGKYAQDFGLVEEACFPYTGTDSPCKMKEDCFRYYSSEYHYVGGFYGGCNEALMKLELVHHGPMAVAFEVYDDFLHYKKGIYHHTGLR
Sequence of Dipeptidyl peptidase 1 (P53634 395-463 limits assumed): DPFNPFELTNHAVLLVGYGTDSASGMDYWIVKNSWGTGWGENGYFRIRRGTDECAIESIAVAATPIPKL

Ki: 3.6 nM
Structure (SMILES): CN1C(=O)Cc2ccc(-c3sc(CC(C#N)NC(=O)[C@H]4N[C@@H]5CC[C@H]4C5)c(F)c3Br)cc21 (stereo partly specified)
